These are literature values, as cited in patent publication US20230263806A1, “METHODS OF TREATING PROTEINOPATHIES” (Woolsey Pharmaceuticals, Inc., priority 2020, published 2023).

For data set [1] the following is noted: 1-hydroxy (M3) metabolite, in vivo.
For data set [2], the target named is p38 mitogen-activated protein kinase (Homo sapiens, UniProt Q16539).
The next data set concerns triple transgenic Mice. To be noted: 10 or 12 months of age; administered in water at 30 mg/kg and 100 mg/kg.
The subject of data set [3] is triple transgenic mouse model (APP Swedish, MAPT P301L, and PSEN1 M146V). As to conditions: 10 mg/kg/day intraperitoneally (57 mg HED).

Where a name gives a salt, the structure may show the parent alone.

Chain of p38 mitogen-activated protein kinase (Q16539 2-360 limits assumed): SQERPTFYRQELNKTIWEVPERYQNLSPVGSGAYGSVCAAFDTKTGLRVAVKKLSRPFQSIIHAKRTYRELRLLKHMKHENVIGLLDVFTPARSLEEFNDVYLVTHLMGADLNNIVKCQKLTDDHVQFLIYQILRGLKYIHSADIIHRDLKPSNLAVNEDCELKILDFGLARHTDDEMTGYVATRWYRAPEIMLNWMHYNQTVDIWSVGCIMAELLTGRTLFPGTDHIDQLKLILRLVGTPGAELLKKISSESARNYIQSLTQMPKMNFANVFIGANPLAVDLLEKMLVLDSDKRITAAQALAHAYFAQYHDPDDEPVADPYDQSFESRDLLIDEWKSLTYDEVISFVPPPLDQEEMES

As for `O=S(=O)(c1cccc2c(O)nccc12)N1CCCNCC1` [M3], the half-life result in data set [1] is “about 8 hours”.

As for `O=c1ncn2nc(Sc3ccc(F)cc3F)ccc2c1-c1c(Cl)cccc1Cl` [Neflamapimod], in data set [2] (Phase 2), the “primary endpoint of improving episodic memory” value is “failed” and the “tau in the cerebrospinal fluid” value is “reducing tau”. The Aβ deposition result in data set [2] (humans) is given as “no effect”.

Turning to `O=S(=O)(c1cccc2cnccc12)N1CCCNCC1` [fasudil, Hexahydro-1-(5-isoquinolinesulfonyl)-1H-1,4-diazepine Monohydrochloride Hemihydrate], the spatial memory result in the data set on triple transgenic Mice is “did not observe improvements in spatial memory”. Besides, the “amyloid plaques in vivo” value in data set [3] is recorded as “reduce 1 amyloid plaques”.
